In one test the target is T1, IL-17A/A (Homo sapiens, UniProt Q16552).
T1 construct: purchased Genscript Z03228
T1 sequence (Q16552 24-155): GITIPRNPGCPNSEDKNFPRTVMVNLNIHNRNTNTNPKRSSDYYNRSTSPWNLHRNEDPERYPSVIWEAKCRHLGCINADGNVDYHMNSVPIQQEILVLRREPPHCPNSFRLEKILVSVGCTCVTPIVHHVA
The test can be described thus: IL-17A/A HEK-Blue Cell Assay. It is filed as cell-based. The note with it: HEK-Blue IL-17A reporter cell line, SEAP readout at A630, 20 hours incubation with IL-17A/A; top concentration 10 uM, 1 uM or 0.3 uM.
As for `CCC(=O)N[C@@H](C(=O)N1C[C@H](C)N(C(C)C)[C@@H](C)C1)[C@@H](C)c1ccc(NC(=O)[C@@H](NC(=O)c2nonc2CC)[C@H]2CC[C@H](C)CC2)c(F)c1` [Compound 449], the “IL-17A/A inhibition (pIC50)” value was “A (compounds having a pIC50 of greater than or equal 8 as A)”.
On the same count and under the same terms, with `CCC(=O)N[C@H](Cc1ccc(NC(=O)[C@H](Cc2cccc(Cl)c2)NC(=O)c2ccnn2CC)c(F)c1)C(=O)N1CCN(C)CC1` [Compound 726] the entry was “X2b (compounds were evaluated up to 1 uM and inhibited activity at 1 uM by less than 20%)”; with `CCC(=O)N[C@H](Cc1ccc(NC(=O)[C@@H](NC(=O)c2ccnn2CC)C2CCCCC2)c(F)c1)C(=O)N1CC2(CCN(C)CC2)C1` [Compound 751], “X2b (compounds were evaluated up to 1 uM and inhibited activity at 1 uM by less than 20%)”; with `CCC(=O)N[C@@H](C(=O)N1CCN(C)CC1)[C@@H](C)c1ccc(NC(=O)[C@@H](NC(=O)c2cccn2CC2CC2)[C@H]2CC[C@H](C)CC2)c(F)c1` [Compound 283], “A (compounds having a pIC50 of greater than or equal 8 as A)”.
`CCC(=O)N[C@H](Cc1ccc(NC(=O)[C@@H](NC(=O)C(C)(C)c2ccccc2)C2CCCCC2)c(F)c1)C(=O)N1CCN(C)CC1` [Compound 709]: the “IL-17A/A inhibition (pIC50)” value was “X2b (compounds were evaluated up to 1 uM and inhibited activity at 1 uM by less than 20%)”.
For the compound `CCC(=O)N[C@@H](C(=O)N1CCN(C)CC1)[C@@H](C)c1ccc(NC(=O)[C@@H](NC(=O)CC2CCNCC2)C2CCCCC2)c(F)c1` [Compound 741], the “IL-17A/A inhibition (pIC50)” value was “X2b (compounds were evaluated up to 1 uM and inhibited activity at 1 uM by less than 20%)”.
Turning to `CCC(=O)N[C@@H](C(=O)N1CCN(C(C)(C)O)CC1)[C@@H](C)c1ccc(NC(=O)[C@@H](NC(=O)c2ccnn2CC)[C@H]2CC[C@H](C)CC2)c(F)c1` [Compound 424], the “IL-17A/A inhibition (pIC50)” value is “B (8>B≥7 as B)”.
Same read-out and setting: next, `CCC(=O)N[C@@H](C(=O)N1CCN(C)CC1)[C@@H](C)c1ccc(NC(=O)[C@H](Cc2ccccc2Cl)NC(=O)c2ccnn2CC)c(F)c1` [Compound 742]: “X2a (compounds were evaluated up to 1 uM and did not inhibit activity by >80%, however they showed some activity at 1 uM (less than 80% and more than 20%))”; `CCc1nonc1C(=O)N[C@H](C(=O)Nc1ccc([C@H](C)[C@@H](NC(C)=O)C(=O)N2CCN(C)[C@@H](C)C2)cc1F)[C@H]1CC[C@H](C)CC1` [Compound 511]: “A (compounds having a pIC50 of greater than or equal 8 as A)”.
As for `CCC(=O)N[C@@H](C(=O)N1CCN(C)CC1)[C@@H](C)c1ccc(NC(=O)C(NC(=O)c2nonc2CC)C(C)C2CCC(F)(F)CC2)c(F)c1` (single isomer, unassigned) [Compound 590], the “IL-17A/A inhibition (pIC50)” value was “X3b (compounds were evaluated up to 0.3 uM and inhibited activity at 0.3 uM by less than 20%)”.
For the compound `CCC(=O)N[C@H](Cc1ccc(NC(=O)[C@@H](NC(=O)c2ccc(C(=O)NC)n2C)C2CCCCC2)c(F)c1)C(=O)N1CCN(C)CC1` [Compound 780], the “IL-17A/A inhibition (pIC50)” value was “X1b (compounds were evaluated up to 10 uM and inhibited activity at 10 uM by less than 20%)”.
Same read-out and setting: with `CCC(=O)N[C@@H](C(=O)N1CCN(C)CC1)[C@@H](C)c1ccc(NC(=O)C(NC(=O)c2nonc2CC)C(OC)c2ccc(F)cc2)c(F)c1` (single isomer, unassigned) [Compound 609] the entry was “X2b (compounds were evaluated up to 1 uM and inhibited activity at 1 uM by less than 20%)”.

Still in this test, the particulars now being: HEK-Blue IL-17A reporter cell line, SEAP readout at A630, 20 hours incubation with IL-17A/A; top concentration 10 uM, 1 uM or 0.3 uM; read-out: IL-17A/A inhibition (pIC50) (converted).
Consider `CCC(=O)N[C@@H](C(=O)N1CCN(C)CC1)[C@@H](C)c1ccc(NC(=O)[C@@H](NC(=O)c2nonc2C)[C@H]2CC[C@H](C)CC2)c(F)c1` [Compound 582], for which the IC50 is 10 to 100 nM.
The same measure, in the same setting: next, `CCC(=O)N[C@@H](C(=O)NCC1CCC1)[C@@H](C)c1ccc(NC(=O)[C@@H](NC(=O)c2ccnn2CC)C2CCCCCC2)c(F)c1` [Compound 538]: below 10 nM.
As to `CCC(=O)N[C@@H](C(=O)N1CCOCC1)[C@@H](C)c1ccc(NC(=O)[C@@H](NC(=O)c2ccnn2CC)[C@H]2CC[C@H](C)CC2)c(F)c1` [Compound 342], the IC50 was 10 to 100 nM.
With `CCn1nccc1C(=O)N[C@H](C(=O)Nc1ccc([C@H](C)[C@@H](NC(=O)c2cnns2)C(=O)N2CCN(CCO)CC2)cc1F)[C@H]1CC[C@H](C)CC1` [Compound 428], the IC50 is 10 to 100 nM.
Consider `CCn1nccc1C(=O)N[C@H](C(=O)Nc1ccc([C@H](C)[C@@H](NC(=O)NC)C(=O)N2CCN(C)CC2)cc1F)C1CCCCC1` [Compound 636], for which the IC50 is 100 to 10000 nM.
Regarding `CCc1nonc1C(=O)N[C@H](C(=O)Nc1ccc([C@H](C)C(NC(=O)C(C)F)C(=O)N2CCN(C)[C@@H](C)C2)cc1F)[C@H]1CC[C@H](C)CC1` (single isomer, unassigned) [Compound 595], the IC50 is 10 to 100 nM.
For the compound `CCC(=O)N[C@@H](C(=O)N1CC2(C1)CC(F)(F)C2)[C@@H](C)c1ccc(NC(=O)[C@@H](NC(=O)c2ccnn2CC)[C@H]2CC[C@H](C)CC2)c(F)c1` [Compound 373], the IC50 was 10 to 100 nM.
On to `CCC(=O)N[C@@H](C(=O)N1CCN(C)CC1)[C@@H](C)c1ccc(NC(=O)C(NC(=O)c2ccnn2CC)C(CC)c2ccc(F)cc2)c(F)c1` (single isomer, unassigned) [Compound 555], for which the IC50 is below 10 nM.
For `CCc1nonc1C(=O)N[C@H](C(=O)Nc1ccc([C@H](C)C(NC(=O)C(C)F)C(=O)N2CCN(C)[C@@H](C)C2)cc1F)[C@H]1CC[C@H](C)CC1` (single isomer, unassigned) [Compound 594], the IC50 was below 10 nM.
On the same count and under the same terms, with `CCC(=O)N[C@@H](C(=O)N1CCOCC1)[C@@H](C)c1ccc(NC(=O)[C@@H](NC(=O)C(F)(F)c2cccc(C#N)c2)C2CCCCC2)c(F)c1` [Compound 352] the figure was 10 to 100 nM; with `CCn1nccc1C(=O)N[C@H](C(=O)Nc1ccc([C@H](C)[C@@H](NC(=O)[C@H](C)CC(=O)O)C(=O)N2CCN(C)CC2)cc1F)[C@H]1CC[C@H](C)CC1` [Compound 474], 10 to 100 nM.
Take `CCC(=O)N[C@@H](C(=O)N1CCN(C)CC1)[C@@H](C)c1ccc(NC(=O)[C@@H](NC(=O)c2coc3cc(OC)ccc23)C2CCCCCC2)c(F)c1` [Compound 258]: the IC50 was below 10 nM.
`CCn1nccc1C(=O)N[C@H](C(=O)Nc1ccc([C@H](C)[C@@H](NC(=O)c2cnns2)C(=O)N2CCN(C)CC2)cc1F)C1CCCCC1` [Compound 310]: the IC50 is 10 to 100 nM.
Take `CCC(=O)N[C@H](Cc1ccc(NC(=O)[C@@H](NC(=O)c2coc3ccccc23)C2CCCCC2)c(F)c1)C(=O)N1CCN(C)CC1` [Compound 632]: the IC50 was 100 to 10000 nM.
For the compound `CCC(=O)N[C@@H](C(=O)N1CCN(C)CC1)[C@@H](C)c1ccc(NC(=O)[C@@H](NC(=O)C(F)(F)c2csc(C)c2)[C@H]2CC[C@H](C)CC2)c(F)c1` [Compound 276], the IC50 was 10 to 100 nM.
Same read-out and setting: with `CCC(=O)N[C@@H](C(=O)N1CCN(C)CC1)[C@@H](C)c1ccc(NC(=O)[C@@H](NC(=O)C(F)(F)c2cncc(OC)c2)C2CCCCCC2)c(F)c1` [Compound 262] the figure was 10 to 100 nM; with `CCC(=O)N[C@H](Cc1ccc(NC(=O)[C@@H](NC(=O)C(F)(F)c2cccc(NS(C)(=O)=O)c2)C2CCCCC2)c(F)c1)C(=O)N1CCN(C)CC1` [Compound 642], 100 to 10000 nM; with `CCc1nonc1C(=O)N[C@H](C(=O)Nc1ccc([C@H](C)[C@@H](NC(=O)[C@H](C)OC)C(=O)N2CCN(C)CC2)cc1F)[C@H]1CC[C@H](C)CC1` [Compound 497], below 10 nM.
The same measure, in the same setting: next, `CCc1nonc1C(=O)N[C@H](C(=O)Nc1ccc([C@H](C)[C@@H](NC(=O)CC2CC2)C(=O)N2CCN(C)[C@@H](C)C2)cc1F)[C@H]1CC[C@H](C)CC1` [Compound 506]: below 10 nM.
As to `CCC(=O)N[C@@H](C(=O)N1CCN(C)C[C@H]1C)[C@@H](C)c1ccc(NC(=O)[C@@H](NC(=O)c2ccnn2CC)[C@H]2CC[C@H](C)CC2)c(F)c1` [Compound 430], the IC50 was below 10 nM.
For `CCC(=O)N[C@@H](C(=O)N1CCN(C)CC1)[C@@H](C)c1ccc(NC(=O)[C@@H](NC(=O)c2ccnn2CC)[C@H](C)[C@H]2CC[C@H](C)CC2)c(F)c1` [Compound 587], the IC50 was 10 to 100 nM.
For the compound `C[C@@H](c1ccc(NC(=O)[C@@H](NC(=O)c2ccnn2C2COC2)[C@H]2CC[C@H](C)CC2)c(F)c1)[C@@H](NC(=O)c1cnns1)C(=O)N1CCN(C)CC1` [Compound 546], the IC50 is 10 to 100 nM.
For the compound `CCC(=O)N[C@@H](C(=O)N1CCN(C)CC1)[C@@H](C)c1ccc(NC(=O)C(NC(=O)c2ccnn2CC)C(C)C2CCC(F)(F)CC2)c(F)c1` (single isomer, unassigned) [Compound 606], the IC50 is 10 to 100 nM.
On to `CCC(=O)N[C@H](Cc1ccc(NC(=O)[C@@H](NC(=O)C(F)(F)c2ccc(Cl)cc2)C2CCCCC2)c(F)c1)C(=O)N1CCN(C)CC1` [Compound 211], for which the IC50 was 100 to 10000 nM.
Take `CCC(=O)N[C@@H](C(=O)N1CCN(C)CC1)[C@@H](C)c1ccc(NC(=O)[C@@H](NC(=O)c2ccnn2C(C)C)C2CCCCC2)cc1` [Compound 633]: the IC50 is 100 to 10000 nM.
On to `CCC(=O)N[C@@H](C(=O)N1CCN(C)CC1)[C@@H](C)c1ccc(NC(=O)[C@@H](NC(=O)c2occc2CC)[C@H]2CC[C@H](C)CC2)c(F)c1` [Compound 524], for which the IC50 was 10 to 100 nM.
In the case of `CCC(=O)N[C@@H](C(=O)N1CCN(C)CC1)[C@@H](C)c1ccc(NC(=O)[C@@H](NC(=O)c2conc2C2(C)COC2)[C@H]2CC[C@H](C)CC2)c(F)c1` [Compound 397], the IC50 was 10 to 100 nM.
With `CCC(=O)N[C@@H](C(=O)N1CCN(C)CC1)[C@@H](C)c1ccc(NC(=O)[C@@H](NC(=O)c2conc2CC)C2CCCCC2)cc1` [Compound 298], the IC50 was 10 to 100 nM.
In the case of `CCn1nccc1C(=O)N[C@H](C(=O)Nc1ccc([C@H](C)[C@@H](NC(=O)C(C)(F)F)C(=O)N2CCN(C)CC2)cc1F)[C@H]1CC[C@H](C)CC1` [Compound 471], the IC50 is 10 to 100 nM.

For the origin of these results see patent US12421212B2, “Substituted benzenecarboxamides as IL-17A modulators” (DiCE Alpha, Inc., priority 2019, dated 2025).
